The text below walks through data of patent US20250339547A1, “MET BCL-XL INHIBITOR ANTIBODY-DRUG CONJUGATES AND METHODS OF USE THEREOF” (Novartis AG, priority 2022, published 2025).

Each structure is given as a SMILES string.

For one experiment, the system named is EBC-1. The experiment is described as follows: In vitro activity in EBC-1 cell line (CTG 120h), Example 12. Format: cell-based. Particulars: Homo sapiens, EBC-1, 120 h, EBC1, CTG 120 h. The protocol: EBC-1 and SNU-5 cell lines were cultured in the media described above at 37° C. in a humidified atmosphere containing 5% CO2. The cells were seeded in 96 well clear bottom plates (96 well clear-bottom, white, Corning reference 3903) and exposed to the mAbs or ADCs for 120h (serially diluted; 9 concentrations each, triplicates). Effects of mAbs or ADCs on cell viability were assessed after 5 days of incubation at 37° C./5% CO2 by quantification of cellular ATP levels using CellTiter-Glo reagent (Promega Ref: G7571) at 75 μL reagent/well. All the conditions were tested in triplicates. Luminescence was quantified on a multipurpose plate reader. IC50s were calculated using standard four-parametric curve fitting. IC50 is defined as the compound concentration at which the CTG signal is reduced to 50% of that measured for the control. Two independent experiments were performed (N1 and N2).
Plating Conditions: EBC-1: 75 μL/well of 60000 cells/mL for 120h in 96-well plate SNU-5: 75 μL/well of 60000 cells/mL for 120h in 96-well plate H1650 (ATOC): 75 μL/well of 125000 cells/mL for 120h in 96 microwell round bottom plates

A further experiment deals with lung cancer cell lines. As to the kind of experiment: Lung cancer cell line panel of Example 7, statements in text (CTG 120h). The format is cell-based. Particulars: lung cancer cell lines of Table 15, single agents. The protocol:
Cell lines were cultured in the media described above at 37° C. in a humidified atmosphere containing 5% CO2. Cells were seeded in 96 well clear bottom plates (96 well clear-bottom, white, Corning reference 3903) and exposed to the mAbs, mAbs mixture, ADCs or ADCs mixture as single agents or in 1:1 combination with Paclitaxel. When in 1:1 combination, both the combining partner (Paclitaxel) and the mAb, mAb mixture, ADC or ADC mixture were serially diluted (9 concentrations each, triplicates). Effect on cell viability was assessed after 5 days of incubation at 37° C./5% CO2 by quantification of cellular ATP levels using CellTiter-Glo reagent (Promega Ref: G7571) at 75 μL reagent/well. All the conditions were tested in triplicates. Luminescence was quantified on a multipurpose plate reader. IC50s were calculated using standard four-parametric curve fitting. IC50 is defined as the compound concentration at which the CTG signal is reduced to 50% of that measured for the control. Two independent experiments were performed (N1 and N2).

`Cc1c(Nc2nc3ccccc3s2)nnc2c1CCCN2c1ccc(-c2cnn(C[C@]34C[C@]5(C)C[C@](C)(C3)C[C@@](OCCNCCCO)(C5)C4)c2C)c(C(=O)O)n1` [P25, 6-[3-(1,3-benzothiazol-2-ylamino)-4-methyl-6,7-dihydro-5H-pyrido[2,3-c]pyridazin-8-yl]-3-[1-[[3-[2-(3-hydroxypropylamino)ethoxy]-5,7-dimethyl-1-adamantyl]methyl]-5-methyl-pyrazol-4-yl]pyridine-2-carboxylic acid]: the figures for the IC50 with EBC-1 (Mean), in the experiment on EBC-1 (N1) and in the experiment on EBC-1 (N2) were 12.6 nM, 12.8 nM and 12.4 nM, respectively.

As to `CC(=O)O[C@H]1C(=O)[C@@]2(C)[C@H]([C@H](OC(=O)c3ccccc3)[C@]3(O)C[C@H](OC(=O)[C@H](O)[C@@H](NC(=O)c4ccccc4)c4ccccc4)C(C)=C1C3(C)C)[C@]1(OC(C)=O)CO[C@@H]1C[C@@H]2O` [Paclitaxel, paclitaxel], in the experiment with lung cancer cell lines, the “effect on the viability” value is on record as “induced dose dependent decrease in cell viability (with measurable IC50) in all cell lines except NCI-H1838”.
